Patent publication US20140227357A1, “FILL FORMULATIONS AND CAPSULES AND METHOD OF USE TO AVOID MIGRATION OF FILL INTO OR THROUGH THE SHELL” (CAPSUGEL BELGIUM NV, priority 2011, published 2014)

Test: Technical batch stability study, 2-butanol and 2-pentanone assay by gas chromatography
Format: physicochemical
Conditions: in Formulation 4, sealed LICAPS

assay, % label claim (6 months at 25° C./60% RH in PET/Alu/PE bags): 100.3% | assay, % label claim (6 months at 40° C./75% RH in PET/Alu/PE bags): 99.8%
SMILES: CCCC(C)=O [Formulation 2-pentanone, 2-pentanone]
